Reference: the NIST ThermoML archive (doi:10.1021/je200721d)

Assay: xn = mol fraction of the nth substance listed
Details: Liquid, Vibrating tube method

CCCCCCCCCC [decane] + CCCCCC
Details	mass density [kg/m3]
332.93 K, 7000 kPa, x2 = 0.8991	643.52
332.93 K, 8000 kPa, x2 = 0.8991	644.74
332.93 K, 9000 kPa, x2 = 0.8991	645.94
332.93 K, 10000 kPa, x2 = 0.8991	647.14
332.93 K, 11000 kPa, x2 = 0.8991	648.32
332.93 K, 12000 kPa, x2 = 0.8991	649.47
332.93 K, 13000 kPa, x2 = 0.8991	650.61
332.93 K, 14000 kPa, x2 = 0.8991	651.73
332.93 K, 15000 kPa, x2 = 0.8991	652.84
332.93 K, 16000 kPa, x2 = 0.8991	653.92
332.93 K, 17000 kPa, x2 = 0.8991	654.97
332.93 K, 18000 kPa, x2 = 0.8991	655.99
332.93 K, 19000 kPa, x2 = 0.8991	657.01
332.93 K, 20000 kPa, x2 = 0.8991	657.98
332.93 K, 21000 kPa, x2 = 0.8991	658.93
332.93 K, 22000 kPa, x2 = 0.8991	659.86
332.93 K, 23000 kPa, x2 = 0.8991	660.76
332.93 K, 24000 kPa, x2 = 0.8991	661.64
332.93 K, 25000 kPa, x2 = 0.8991	662.49
333.08 K, 1000 kPa, x2 = 0.2185	689.16
333.08 K, 2000 kPa, x2 = 0.2185	690.17
333.08 K, 3000 kPa, x2 = 0.2185	691.16
333.08 K, 4000 kPa, x2 = 0.2185	692.16
333.08 K, 5000 kPa, x2 = 0.2185	693.16
333.08 K, 6000 kPa, x2 = 0.2185	694.13
333.08 K, 7000 kPa, x2 = 0.2185	695.1
333.08 K, 8000 kPa, x2 = 0.2185	696.06
333.08 K, 9000 kPa, x2 = 0.2185	697.02
333.08 K, 10000 kPa, x2 = 0.2185	697.94
333.08 K, 10990 kPa, x2 = 0.2185	698.86
333.08 K, 12000 kPa, x2 = 0.2185	699.77
333.08 K, 13000 kPa, x2 = 0.2185	700.66
333.08 K, 14000 kPa, x2 = 0.2185	701.54
333.08 K, 15000 kPa, x2 = 0.2185	702.39
333.08 K, 16000 kPa, x2 = 0.2185	703.25
333.08 K, 17000 kPa, x2 = 0.2185	704.09
333.08 K, 18000 kPa, x2 = 0.2185	704.93
333.08 K, 19000 kPa, x2 = 0.2185	705.76
333.08 K, 20000 kPa, x2 = 0.2185	706.56
333.08 K, 21000 kPa, x2 = 0.2185	707.37
333.08 K, 22000 kPa, x2 = 0.2185	708.17
333.08 K, 23000 kPa, x2 = 0.2185	708.95
333.08 K, 24000 kPa, x2 = 0.2185	709.72
333.08 K, 25000 kPa, x2 = 0.2185	710.48
333.1 K, 1000 kPa, x2 = 0.7524	650.65
333.1 K, 2000 kPa, x2 = 0.7524	651.99
333.1 K, 3000 kPa, x2 = 0.7524	653.29
333.1 K, 4000 kPa, x2 = 0.7524	654.52
333.1 K, 5000 kPa, x2 = 0.7524	655.72
333.1 K, 6000 kPa, x2 = 0.7524	656.92
333.1 K, 7000 kPa, x2 = 0.7524	658.07
333.1 K, 8000 kPa, x2 = 0.7524	659.21
333.1 K, 9000 kPa, x2 = 0.7524	660.35
333.1 K, 10000 kPa, x2 = 0.7524	661.46
333.1 K, 10990 kPa, x2 = 0.7524	662.52
333.1 K, 12000 kPa, x2 = 0.7524	663.6
333.1 K, 13000 kPa, x2 = 0.7524	664.65
333.1 K, 14000 kPa, x2 = 0.7524	665.67
333.1 K, 15000 kPa, x2 = 0.7524	666.7
333.1 K, 16000 kPa, x2 = 0.7524	667.68
333.1 K, 17000 kPa, x2 = 0.7524	668.66
333.1 K, 18000 kPa, x2 = 0.7524	669.62
333.1 K, 19000 kPa, x2 = 0.7524	670.59
333.1 K, 20000 kPa, x2 = 0.7524	671.52
333.1 K, 21000 kPa, x2 = 0.7524	672.45
333.1 K, 22000 kPa, x2 = 0.7524	673.35
333.1 K, 23000 kPa, x2 = 0.7524	674.23
333.1 K, 24000 kPa, x2 = 0.7524	675.08
333.1 K, 25000 kPa, x2 = 0.7524	675.91
333.12 K, 1000 kPa, x2 = 0.0456	697.88
333.12 K, 2000 kPa, x2 = 0.0456	698.9
333.12 K, 3000 kPa, x2 = 0.0456	699.91
333.12 K, 4000 kPa, x2 = 0.0456	700.9
333.12 K, 5000 kPa, x2 = 0.0456	701.88
333.12 K, 6000 kPa, x2 = 0.0456	702.84
333.12 K, 7000 kPa, x2 = 0.0456	703.78
333.12 K, 8000 kPa, x2 = 0.0456	704.71
333.12 K, 9000 kPa, x2 = 0.0456	705.63
333.12 K, 10000 kPa, x2 = 0.0456	706.54
333.12 K, 10990 kPa, x2 = 0.0456	707.42
333.12 K, 12000 kPa, x2 = 0.0456	708.3
333.12 K, 13000 kPa, x2 = 0.0456	709.16
333.12 K, 14000 kPa, x2 = 0.0456	710.01
333.12 K, 15000 kPa, x2 = 0.0456	710.86
333.12 K, 16000 kPa, x2 = 0.0456	711.67
333.12 K, 17000 kPa, x2 = 0.0456	712.48
333.12 K, 18000 kPa, x2 = 0.0456	713.29
333.12 K, 19000 kPa, x2 = 0.0456	714.08
333.12 K, 20000 kPa, x2 = 0.0456	714.87
333.12 K, 21000 kPa, x2 = 0.0456	715.64
333.12 K, 22000 kPa, x2 = 0.0456	716.39
333.12 K, 23000 kPa, x2 = 0.0456	717.15
333.12 K, 24000 kPa, x2 = 0.0456	717.89
333.12 K, 25000 kPa, x2 = 0.0456	718.63
